Assay results as given in PMC5862892, “Near-native, site-specific and purification-free protein labeling for quantitative protein interaction analysis by MicroScale Thermophoresis” (Scientific Reports, 2018).
“Also recorded” adds a separate entry of the source.

Assays:
His-tag = target: His-tag; parameters: method as in PMID 16028931; conditions: read-out: molecular binding affinity of Ni(II)-NTA for His-tag; cited from earlier work
mNeonGreen-His6 = assay: MST: mNeonGreen-His6 negative control against SB203580 in HeLa cell lysate; type: binding
[1] = target: pUL50 (Human cytomegalovirus) (UniProt P16791); assay: ITC; conditions: cited from earlier work
Sequence of UniProt P16791 (P16791 whole entry): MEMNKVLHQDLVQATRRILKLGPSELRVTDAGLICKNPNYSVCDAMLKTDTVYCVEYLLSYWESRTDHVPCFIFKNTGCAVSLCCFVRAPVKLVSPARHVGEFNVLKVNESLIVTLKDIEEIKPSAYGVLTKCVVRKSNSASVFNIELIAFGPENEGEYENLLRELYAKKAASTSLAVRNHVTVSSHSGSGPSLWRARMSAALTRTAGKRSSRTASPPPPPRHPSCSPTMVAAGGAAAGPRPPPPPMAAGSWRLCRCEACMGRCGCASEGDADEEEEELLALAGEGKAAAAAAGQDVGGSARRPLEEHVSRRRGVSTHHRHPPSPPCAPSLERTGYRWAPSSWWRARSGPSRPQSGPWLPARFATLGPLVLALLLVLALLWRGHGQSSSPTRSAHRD

O=C(O)CN(CC(=O)O)CC(=O)O [NTA, nitrilotriacetic acid]
Kd (His-tag): ~10 µM

C[S+]([O-])c1ccc(-c2nc(-c3ccncc3)c(-c3ccc(F)cc3)[nH]2)cc1 (stereo not drawn) [SB203580]
binding to RED-tris-NTA labeled mNeonGreen-His6 (p38α-free negative control) (mNeonGreen-His6): no binding could be detected; also recorded: did not yield a binding curve

pUL53 (from UniProt P16794)
Kd [1]: 0.29 µM
